Laboratory results: patent US20080226718A1, “Indole and Azaindole Derivatives For the Treatment of Inflammatory and Autoimmune Diseases” (Brane Discovery S.r.l, priority 2005, published 2008)

Legend:
Format in all cases: cell-based, SJL mice
[1] = system: encephalitogenic lymphocytes; experiment: Spontaneous adhesion of encephalitogenic T cells on purified ICAM-1; conditions: Mus musculus, Lymphocyte, 1 h; for inhibition at 5 µM: [cpd] 5 μM, read-out: Inhibition of Spontaneous Adhesion in encephalitogenic lymphocytes (% of control/non-treated cells) ICAM-1; for inhibition at 10 µM: [cpd] 10 μM; for inhibition at 10 µM / inhibition at 25 µM / inhibition at 50 µM / inhibition at 100 µM: read-out: Inhibition of Spontaneous Adhesion in encephalitogenic lymphocytes (% of control/non-treated cells) ICAM-1 (converted); for inhibition at 25 µM: [cpd] 25 μM; for inhibition at 50 µM: [cpd] 50 μM; for inhibition at 100 µM: [cpd] 100 μM
Method: (§1) Spontaneous adhesion of encephalitogenic lymphocytes was measured in adhesion assays on purified ICAM-1 and VCAM-1 as previously described (Constantin G. et al., J. Immunol. 162, 1144-1149, 1999). Autoreactive T cells were obtained from SJL mice immunized with PLP139-151 as described (Piccio L. et al., J. Immunol. 168, 1940-1949, 2002). Lymphocytes were treated with test compound at concentrations between 5-100 μM for 1 h, while control/untreated cells were treated with vehicle (DMSO). Results are expressed as percentage of inhibition over control (=100%) ±S.D and are the mean of three-four experiments.
(§2) ICAM-1 and VCAM-1 are adhesion molecules from the family of immunoglobulins and control the migration of lymphocytes through the endothelium during inflammatory responses. Encephalitogenic T cells are activated lymphocytes displaying spontaneous adhesion on ICAM-1 and VCAM-1 and have increased migration capacities in inflammation sites. Spontaneous adhesion of encephalitogenic lymphocytes was measured in adhesion assays on purified ICAM-1 and VCAM-1 as described in the method.

[2] = system: encephalitogenic lymphocytes; experiment: Spontaneous adhesion of encephalitogenic T cells on purified VCAM-1; conditions: Mus musculus, Lymphocyte, 1 h; for inhibition at 5 µM: [cpd] 5 μM, read-out: Inhibition of Spontaneous Adhesion in encephalitogenic lymphocytes (% of control/non-treated cells) VCAM-1; for inhibition at 10 µM: [cpd] 10 μM; for inhibition at 10 µM / inhibition at 25 µM / inhibition at 50 µM: read-out: Inhibition of Spontaneous Adhesion in encephalitogenic lymphocytes (% of control/non-treated cells) VCAM-1 (converted); for inhibition at 25 µM: [cpd] 25 μM; for inhibition at 50 µM: [cpd] 50 μM
Method: as §1, §2

[3] = system: encephalitogenic lymphocytes; experiment: Chemokine-induced adhesion of murine encephalitogenic T cells to ICAM-1; conditions: for Block of chemokine-induced autoreactive lymphocyte adhesion, in words: 5-50 μM for 1 h, 1 μM CCL19; for Chemokine-induced Adhesion in encephalitogenic lymphocytes, Mean counts ± S.D., in presence of MIP3-β stimulation: 1 μM CCL19 (MIP-3beta); for Chemokine-induced Adhesion in encephalitogenic lymphocytes, Mean counts ± S.D., in presence of MIP3-β stimulation / Adhesion in encephalitogenic lymphocytes, Mean counts ± S.D., in absence of MIP3-β stimulation: ICAM-1
Method: Adhesion was performed on purified integrin ligands and was evaluated as reported in Constantin G. et al., Immunity, 16, 759-769, 2000. Briefly, primary naïve lymphocytes, polymorphonuclear neutrophils (PMNs) or monocytes were isolated form healthy donors. In other experiments, murine autoreactive T cells were obtained from SJL mice immunized with PLP139-151 as described (Piccio L. et al., J. Immunol, 168, 1940-1949, 2002). Cells were resuspended at 4×10^6/ml in PBS, CaCl2, MgCl2 1 mM, 10% FCS, pH 7.2. Adhesion assays were performed on eighteen well glass slides coated overnight at 4° C. with ligands for CR3 (fibrinogen) or LFA-1 (ICAM-1). 20 μl of cell suspension were added to the wells and stimulated at 37° C. with 5 μl of agonists prior to washing, fixation and computer-assisted enumeration of bound cells.
Integrin activation was measured as induction of rapid adhesion triggered by the classical chemoattractant N-formyl-L-methionyl-L-leucyl-phenylalanine (fMLP) (100 nM) or by the CC chemokine MIP3β (CCL19, 1 μM). PMNs and monocytes were triggered to adhere to fibrinogen (CR3 ligand); naive human lymphocytes or murine encephalitogenic T cells were triggered to adhere to ICAM-1 (LFA-1 ligand). Triggered adhesion was evaluated after 2 min of stimulation under static conditions. The cells were pretreated at 37° C. for 30-60 min with the indicated concentrations of the test compound. Results are expressed as percentage of inhibition over control (=100%) and are the mean of three experiments in the case of human leukocytes. Results are expressed as mean counts and are the mean counts ±S.D of three experiments and are the mean of three experiments in the case of murine encephalitogenic lymphocytes.
Chemokines trigger rapid arrest of lymphocytes in blood vessels through pertussis toxin-sensitive G protein coupled receptors. Rapid adhesion to purified ICAM-1 was measured in in vitro adhesion assays using control/untreated cells and lymphocytes treated with concentration between 5-50 μM for 1 h. Autoreactive lymphocytes were then stimulated with 1 μM CCL19 (MIP-3beta) for 3 min. […] These compounds were already efficient in blocking adhesion using a concentration of 5 μM for the cell treatment.

Row | Compound | inhibition at 5 µM [1] | inhibition at 10 µM [1] | inhibition at 25 µM [1] | inhibition at 50 µM [1] | inhibition at 100 µM [1] | inhibition at 5 µM [2] | inhibition at 10 µM [2] | inhibition at 25 µM [2] | inhibition at 50 µM [2] | Block of chemokine-induced autoreactive lymphocyte adhesion, in words [3] | Chemokine-induced Adhesion in encephalitogenic lymphocytes, Mean counts ± S.D., in presence of MIP3-β stimulation ([3]; [cpd] 5 μM) | Adhesion in encephalitogenic lymphocytes, Mean counts ± S.D., in absence of MIP3-β stimulation ([3]; [cpd] 5 μM) | Chemokine-induced Adhesion in encephalitogenic lymphocytes, Mean counts ± S.D., in presence of MIP3-β stimulation ([3]; [cpd] 10 μM) | Adhesion in encephalitogenic lymphocytes, Mean counts ± S.D., in absence of MIP3-β stimulation ([3]; [cpd] 10 μM) | Chemokine-induced Adhesion in encephalitogenic lymphocytes, Mean counts ± S.D., in presence of MIP3-β stimulation ([3]; [cpd] 25 μM) | Adhesion in encephalitogenic lymphocytes, Mean counts ± S.D., in absence of MIP3-β stimulation ([3]; [cpd] 25 μM) | Chemokine-induced Adhesion in encephalitogenic lymphocytes, Mean counts ± S.D., in presence of MIP3-β stimulation ([3]; [cpd] 50 μM) | Adhesion in encephalitogenic lymphocytes, Mean counts ± S.D., in absence of MIP3-β stimulation ([3]; [cpd] 50 μM)
1 | COc1ccc(-c2c(C#N)[nH]c3cc(OC)c(OC)cc23)cc1 [Example 17] | 72.8% | 72.5% | 76% | 92% | 99% | 34% | 53% | 71.5% | 89% | almost complete block | 13.6 ± 3.5 | 2.0 ± 1.0 | 10.0 ± 3.0 | 0.9 ± 0.2 | 1.8 ± 1.0 | 0.6 ± 0.5 | 2.1 ± 0.9 | 0.4 ± 0.1
2 | COc1ccc(-c2c3n(c4cc(OC)c(OC)cc24)CCNC3=O)cc1 [Example 27] | 69% | 76% | 82% | 90% | 99% | 11% | 31% | 35.5% | 82% | almost complete block | 17.7 ± 2.5 | 5.0 ± 2.2 | 18.1 ± 4.3 | 1.7 ± 1.0 | 9.3 ± 0.5 | 1.5 ± 0.1 | 5.1 ± 1.1 | 1.2 ± 1.1
3 | COc1ccc(-c2c(C#N)n(CCCO)c3cc(OC)c(OC)cc23)cc1 [Example 44] | 75% | 84% | 88% | 91.5% | 99% | 29% | 39% | 43% | 84% | almost complete block | 2.1 ± 0.5 | 1.0 ± 0.9 | 3.7 ± 1.1 | 0.4 ± 1.7 | 1.8 ± 0.5 | 0.4 ± 0.1 | 0.1 ± 0.5 | 0.4 ± 0.5
4 | COC(=O)c1[nH]c2cc(OC)c(OC)cc2c1-c1ccccc1 [Example 3] | 78% | 79.5% | 90% | 92% | 99% | 6% | 9% | 32.5% | 71.4% | almost complete block | 10.5 ± 3.0 | 1.5 ± 2.0 | 8.7 ± 3.0 | 1.8 ± 1.0 | 3.5 ± 1.5 | 1.2 ± 1.0 | 5.0 ± 2.0 | 0.5 ± 2.0
